Read-outs that look alike come from different tables or passages of the source.
How the values were obtained:
[1] = tested on: housefly (Musca domestica); test: Mortality test against houseflies by topical application; format: in vivo
Procedure: Each test compound was accurately weighed and a 1% solution and an 0.1% solution of the sample in acetone were prepared. A 1 μl portion of either of the above solutions was micropipetted onto the thoracic dorsal part of each female adult housefly (Musca domestica) under ether anaesthesia and the fly was released in a high-walled dish together with feed. The dish was covered with a metal-wire net and maintained at 25° C. After 24 hours, the test flies were inspected for deaths and the mortality (%) was calculated. Thirty test flies were used per concentration group.

Light Stability Test = format: physicochemical; details: ultraviolet light, wavelength=3600 A, 31°-35° C., on glass plate
Procedure: Into 2.0 ml of acetone were dissolved 80 mg of each test compound. A 5 μl portion of the solution was taken and spread on a glass plate (Micro Standard Cover Glass, 18 m/m No. 1, 200 pcs, Matsunami Glass Ind., Ltd.) and the acetone was evaporated. The specimen was exposed to ultraviolet light from a fluorescent lamp (Tokyo Shibaura Electric Co., Ltd., FL20BL, glow-type, 100 V, 24.5 W, wavelength=3600 A) which was fixed just above the specimen at a distance of 11 cm at a temperature of 31°-35° C. for a predetermined exposure time. The test liquid was washed away with 1.0 ml of methanol containing 0.04% of dioctyl phthalate as an internal reference and high-speed liquid chromatography was carried out on the washings to determine the residual amount of the test compound.

Fish Toxicity Test = format: in vivo; details: guppy, water; rank; 50% of female guppies killed during 48 hours, 20° C.; [Mixture] = cis/trans 50/50; read-out: TLm (medium tolerance limit)
Procedure: (§1) The mixture was stirred well to prepare a test water. Ten female guppies from 3 to 4 months of age were released into the test water and maintained at 20° C. The concentration of the test compound at which 50% of the guppies were killed during the ensuring 48 hours was determined. [This concentration is referred to as TLm (medium tolerance limit, ppm)].
(§2) A rank corresponds to TLm of not less than 10 ppm.
(§3) B rank corresponds to TLm of 0.5-10 ppm.
(§4) C rank corresponds to TLm of not more than 0.5 ppm.

guppies = test: Fish Toxicity Test; format: in vivo; details: rank; 50% of female guppies killed during 48 hours, 20° C.; [Mixture] = cis/trans 50/50
Procedure: as §1, §2, §3, §4

green rice leafhoppers = test: Utility Example 1: emulsifiable concentrate sprayed over rice seedlings, green rice leafhopper mortality; format: in vivo; details: 30% emulsifiable concentrate diluted 300-fold, 100 ml/pot, 24 hours; cis/trans 50/50
Procedure: To 30 parts of each of Compounds (1) to (38) were added 50 parts of xylene and 20 parts of Sorpol SM-200 (a surfactant, trademark of Toho Chemical Co., Ltd.). The mixture was stirred well and dissolved to obtain a 30% emulsifiable concentrate.
The emulsifiable concentrate prepared from Compounds (7), (11), (12), (15), (17), (21) and (22) [Each compound is a mixture of cis- and trans-isomer in a ratio 50/50] in Formulation Example 5 were each diluted 300-fold with water. Then, each of the dilutions was sprayed over rice seedlings 25 days after sowing at the rate of 100 ml/pot. The pot was covered with a wire net and 15 green rice leafhoppers were released under the net. After 24 hours, the leafhoppers were examined for deaths. The mortality (%) was not less than 90% for each of Compounds (7), (11), (12), (15), (17), (21) and (22).

houseflies = test: Utility Example 3: settling mist method, mortality test against houseflies, oil preparations of Formulation Example 3; format: in vivo; details: oil preparation of Formulation Example 3 (0.1 part compound + 0.08 part permethrin per 100 parts), 24 hours; cis/trans 50/50
Procedure: To 0.1 part of each of Compounds (1) to (38) was added 0.08 part of permethrin, followed by the addition of a sufficient amount of kerosene to make 100 parts. The mixture was stirred to obtain an oil preparation of each compound.
By the settling mist method, a mortality test against houseflies was carried out using the oil preparations obtained in Formulation Example 3 from Compounds (1), (5), (7), (9), (11), (12), (15), (17) and (28) [Each compound is a mixture of cis- and trans-isomer in a ratio 50/50]. After 24 hours, the flies were examined for deaths. The mortality (%) was not less than 90% for each of Compounds (1), (5), (7), (9), (11), (12), (15), (17) and (28).

[2] = 1μg/fly, female adult, 24 hours, 25° C., [Mixture] = cis/trans 50/50, read-out: Mortality (%)
[3] = 10μg/fly, female adult, 24 hours, 25° C., [Mixture] = cis/trans 50/50, read-out: Mortality (%)

C=CCC1=C(C)C(OC(=O)C2C(C=C(C)C)C2(C)C)CC1=O (stereo not shown) [Allethrin, reference compound]
mortality at 1 µg/fly ([1]; 24 h): 33.3%
mortality at 10 µg/fly ([1]; 24 h): 100%
Residue (%) (Light Stability Test; exposure time 3.5 hrs.): 14%
Residue (%) (Light Stability Test; exposure time 3 days): 0%
LC50 at 48 h (Fish Toxicity Test): ≤ 0.5 µg/mL

C#CC(OC(=O)[C@@H]1[C@@H](CC(Cl)(Cl)Cl)C1(C)C)c1cccc(Oc2ccccc2)c1 (relative stereo) [Compound (11) [Trans-isomer], 3-Phenoxy-α-ethynylbenzyl 2,2-dimethyl-3-(2,2,2-trichloroethyl)cyclopropanecarboxylate]
TLm (medium tolerance limit) (guppies): A (A rank corresponds to TLm of not less than 10 ppm)

CC1(C)C(CC(Cl)(Cl)Cl)C1C(=O)OC(C#N)c1cccc(Oc2ccc(Br)cc2)c1 (stereo not drawn) [(17), 3-(4-Bromophenoxy)-α-cyanobenzyl 2,2-dimethyl-3-(2,2,2-trichloroethyl)cyclopropanecarboxylate]
Mortality (%) (green rice leafhoppers): not less than 90%

CC(Cl)(Cl)CC1C(C(=O)OC(C#N)c2cccc(Oc3ccccc3)c2)C1(C)C (stereo not drawn) [Compound (9), 3-Phenoxy-α-cyanobenzyl 2,2-dimethyl-3-(2,2-dichloropropyl)cyclopropanecarboxylate]
Mortality (%) (houseflies): not less than 90%

CC1(C)C(CC(Cl)(Cl)Cl)C1C(=O)OCc1cccc(Oc2ccccc2)c1 (stereo not shown) [(1), 3-Phenoxybenzyl 2,2-dimethyl-3-(2,2,2-trichloroethyl)cyclopropanecarboxylate]
Mortality (%) (houseflies): not less than 90%

CC1(C)[C@H](CC(Cl)(Cl)Cl)[C@H]1C(=O)OC(C#N)c1cccc(Oc2ccccc2)c1 (stereo partly drawn) [Compound (7) [Trans-isomer], 3-Phenoxy-α-cyanobenzyl 2,2-dimethyl-3-(2,2,2-trichloroethyl)cyclopropanecarboxylate]
TLm (medium tolerance limit) (guppies): B (B rank corresponds to TLm of 0.5-10 ppm)

CC(Cl)(Cl)CC1C(C(=O)OCc2cccc(Oc3ccccc3)c2)C1(C)C (stereo not shown) [(5), 3-Phenoxybenzyl 2,2-dimethyl-3-(2,2-dichloropropyl)cyclopropanecarboxylate]
Mortality (%) (houseflies): not less than 90%

CC1(C)C(CC(Cl)(Cl)Cl)C1C(=O)OC(C#N)c1cccc(OC=C(Cl)Cl)c1 (stereo not drawn) [Compound (34) [Mixture], 3-(2,2-dichlorovinyloxy)-α-cyanobenzyl 2,2-dimethyl-3-(2,2,2-trichloroethyl)cyclopropanecarboxylate]
mortality at 1 µg/fly [1, 2]: 56.7%
mortality at 10 µg/fly [1, 3]: 100%
Residue (%) (Light Stability Test; exposure time 3.5 hrs.): 100%
Residue (%) (Light Stability Test; exposure time 3 days): 88%
Residue (%) (Light Stability Test; exposure time 5 days): 44%
LC50 at 48 h (Fish Toxicity Test): ≥ 10 µg/mL

C#CC(OC(=O)C1C(CC(Cl)(Cl)Cl)C1(C)C)c1cccc(Oc2ccc(Br)cc2)c1 (stereo not drawn) [(22), 3-(4-Bromophenoxy)-α-ethynylbenzyl 2,2-dimethyl-3-(2,2,2-trichloroethyl)cyclopropanecarboxylate]
Mortality (%) (green rice leafhoppers): not less than 90%

C#CC(OC(=O)[C@@H]1[C@H](CC(C)(Cl)Cl)C1(C)C)c1cccc(Oc2ccccc2)c1 (stereo partly drawn) [Compound (13) [Cis-isomer], 3-Phenoxy-α-ethynylbenzyl 2,2-dimethyl-3-(2,2-dichloropropyl)cyclopropanecarboxylate]
TLm (medium tolerance limit) (guppies): A (A rank corresponds to TLm of not less than 10 ppm)

CC1(C)C(CC(Cl)(Cl)Cl)C1C(=O)OCc1cccc(OC=C(Cl)Cl)c1 (stereo not shown) [Compound (33) [Mixture], 3-(2,2-dichlorovinyloxy)benzyl 2,2-dimethyl-3-(2,2,2-trichloroethyl)cyclopropanecarboxylate]
mortality at 1 µg/fly [1, 2]: 6.7%
mortality at 10 µg/fly [1, 3]: 33.3%
LC50 at 48 h (Fish Toxicity Test): ≥ 10 µg/mL

C=CCC1=C(C)C(OC(=O)C2C(CC(Cl)(Cl)Cl)C2(C)C)CC1=O (stereo not shown) [Compound (38) [Mixture], Allethronyl 2,2-dimethyl-3-(2,2,2-trichloroethyl)cyclopropanecarboxylate]
mortality at 1 µg/fly ([1]; 24 h): 6.7%
mortality at 10 µg/fly ([1]; 24 h): 100%
LC50 at 48 h (Fish Toxicity Test): 0.5 to 10 µg/mL

CC1(C)C(CC(Cl)(Cl)Cl)C1C(=O)OCc1cccc(Oc2ccc(Cl)cc2)c1 (stereo not shown) [Compound (2) [Mixture], 3-(4-Chlorophenoxy)benzyl 2,2-dimethyl-3-(2,2,2-trichloroethyl)cyclopropanecarboxylate]
mortality at 1 µg/fly ([1]; 24 h): 0%
mortality at 10 µg/fly ([1]; 24 h): 86.7%
LC50 at 48 h (Fish Toxicity Test): ≥ 10 µg/mL

From patent US4299839A, “Novel pesticides and pesticidal compositions cyclopropanecarboxylates and pesticidal method” (priority 1979, dated 1981)
